Results taken from US9012642B2, “Pyrrolopyridinone compounds and methods for treating HIV” (ViiV Healthcare UK Limited, priority 2011, dated 2015).
Where a name gives a salt, the structure may show the parent alone. Read-outs that look alike come from different tables or passages of the source.

Test system: HIV
Assay: HIV MT4 Assay (antiviral HIV activity in MT-4 cells)
Assay type: cell-based
Description: Antiviral HIV activity and cytotoxicity values for compounds of the invention from Table 1 were measured in parallel in the HTLV-1 transformed cell line MT-4 based on the method previously described (Hazen et al., 2007, In vitro antiviral activity of the novel, tyrosyl-based human immunodeficiency virus (HIV) type 1 protease inhibitor brecanavir (GW640385) in combination with other antiretrovirals and against a panel of protease inhibitor-resistant HIV (Hazen et al., “In vitro antiviral activity of the novel, tyrosyl-based human immunodeficiency virus (HIV) type 1 protease inhibitor brecanavir (GW640385) in combination with other antiretrovirals and against a panel of protease inhibitor-resistant HIV”, Antimicrob. Agents Chemother. 2007, 51: 3147-3154; and Pauwels et al., “Sensitive and rapid assay on MT-4 cells for the detection of antiviral compounds against the AIDS virus”, (J. of Virological Methods 1987, 16: 171-185).
Luciferase activity was measured 96 hours later by adding a cell titer glo (Promega, Madison, Wis.). Percent inhibition of cell protection data was plotted relative to no compound control. Under the same condition, cytotoxicity of the compounds was determined using cell titer Glo™ (Promega, Madison, Wis.). IC50s were determined from a 10 point dose response curve using 3-4-fold serial dilution for each compound, which spans a concentration range >1000 fold.
These values are plotted against the molar compound concentrations using the standard four parameter logistic equation: y=((Vmax*x^n)/(K^n+x^n))+Y^2
Y^2=minimum y n=slope factor
Vmax=maximum y x=compound concentration [M]

[1] = Human immunodeficiency virus 1, MT4, HTLV-1 transformed cell line MT-4, luciferase activity measured 96 hours later, Table 3, read-out: HIV MT4 Assay IC50
[2] = MT4, 96 h, read-out: MT4 (IC50)

| Compound | IC50 [1] [nM] | IC50 [2] [nM] |
| --- | --- | --- |
| Cc1c(-c2c(C(OC(C)(C)C)C(=O)O)n(C)c(=O)c3c2ccn3Cc2cccc(F)c2)ccc2c1CCCO2 (stereo not drawn) [Example 45, 2-(tert-butoxy)-2-(1-(3-fluorobenzyl)-6-methyl-4-(5-methylchroman-6-yl)-7-oxo-6,7-dihydro-1H-pyrrolo[2,3-c]pyridin-5-yl)acetic acid] | 80 | 80 |
| Cc1c(-c2c(C(OC(C)(C)C)C(=O)O)n(C)c(=O)c3c2ccn3Cc2ccc(C(F)(F)F)cc2)ccc2c1CCCO2 (stereo not drawn) [Example 46, 2-(tert-butoxy)-2-(6-methyl-4-(5-methylchroman-6-yl)-7-oxo-1-(4-(trifluoromethyl)benzyl)-6,7-dihydro-1H-pyrrolo[2,3-c]pyridin-5-yl)acetic acid] | 90 | 90 |
| Cc1c(-c2c(C(OC(C)(C)C)C(=O)O)n(C)c(=O)c3c2ccn3Cc2ccc([N+](=O)[O-])cc2)ccc2c1CCCO2 (stereo not drawn) [Example 47, 2-(tert-butoxy)-2-(6-methyl-4-(5-methylchroman-6-yl)-1-(4-nitrobenzyl)-7-oxo-6,7-dihydro-1H-pyrrolo[2,3-c]pyridin-5-yl)acetic acid] | 40 | 40 |
| Cc1c(-c2c(C(OC(C)(C)C)C(=O)O)n(C)c(=O)c3c2ccn3Cc2cc(F)ccc2F)ccc2c1CCCO2 (stereo not drawn) [Example 48, 2-(tert-butoxy)-2-(1-(2,5-difluorobenzyl)-6-methyl-4-(5-methylchroman-6-yl)-7-oxo-6,7-dihydro-1H-pyrrolo[2,3-c]pyridin-5-yl)acetic acid] | 30 | 30 |
| Cc1ccc(Cn2ccc3c(-c4ccc5c(c4C)CCCO5)c(C(OC(C)(C)C)C(=O)O)n(C)c(=O)c32)cc1F (stereo not drawn) [Example 49, 2-(tert-butoxy)-2-(1-(3-fluoro-4-methylbenzyl)-6-methyl-4-(5-methylchroman-6-yl)-7-oxo-6,7-dihydro-1H-pyrrolo[2,3-c]pyridin-5-yl)acetic acid] | 40 | 40 |
| Cc1c(-c2c(C(OC(C)(C)C)C(=O)O)n(C)c(=O)c3c2ccn3Cc2cscn2)ccc2c1CCCO2 (stereo not drawn) [Example 50, 2-(tert-butoxy)-2-(6-methyl-4-(5-methylchroman-6-yl)-7-oxo-1-(thiazol-4-ylmethyl)-6,7-dihydro-1H-pyrrolo[2,3-c]pyridin-5-yl)acetic acid, Trifluoroacetic acid salt] | 230 | 230 |
| Cc1c(-c2c(C(OC(C)(C)C)C(=O)O)n(C)c(=O)c3c2ccn3CC2CCCCC2)ccc2c1CCCO2 (stereo not drawn) [Example 51, 2-(tert-butoxy)-2-(1-(cyclohexylmethyl)-6-methyl-4-(5-methylchroman-6-yl)-7-oxo-6,7-dihydro-1H-pyrrolo[2,3-c]pyridin-5-yl)acetic acid] | 100 | 100 |
| Cc1c(-c2c(C(OC(C)(C)C)C(=O)O)n(C)c(=O)c3c2ccn3CC2CCOCC2)ccc2c1CCCO2 (stereo not drawn) [Example 52, 2-(tert-butoxy)-2-(6-methyl-4-(5-methylchroman-6-yl)-7-oxo-1-((tetrahydro-2H-pyran-4-yl)methyl)-6,7-dihydro-1H-pyrrolo[2,3-c]pyridin-5-yl)acetic acid] | 350 | 350 |
| Cc1c(-c2c(C(OC(C)(C)C)C(=O)O)n(C)c(=O)c3sc4c(c23)CCCC4)ccc2c1CCCO2 (stereo not drawn) [Example 55, tert-Butoxy-[2-methyl-4-(5-methyl-chroman-6-yl)-1-oxo-1,2,5,6,7,8-hexahydro-benzo[4,5]thieno[2,3-c]pyridin-3-yl]-acetic acid] | 130 | 130 |
| Cc1ccc(-c2c(C(OC(C)(C)C)C(=O)O)n(C)c(=O)c3c2c2ccccc2n3Cc2ccc(F)cc2)cc1 (stereo not drawn) [Example 56, 2-(tert-butoxy)-2-(9-(4-fluorobenzyl)-2-methyl-1-oxo-4-(p-tolyl)-2,9-dihydro-1H-pyrido[3,4-b]indol-3-yl)acetic acid] | 740 | 740 |
| Cc1ccc(-c2c(C(OC(C)(C)C)C(=O)O)n(C)c(=O)c3c2c2ccccc2n3C)cc1 (stereo not drawn) [Example 57, 2-(tert-butoxy)-2-(2,9-dimethyl-1-oxo-4-(p-tolyl)-2,9-dihydro-1H-pyrido[3,4-b]indol-3-yl)acetic acid] | 80 | 80 |
| Cc1ccc(-c2c(C(OC(C)(C)C)C(=O)O)n(C)c(=O)c3c2c2c(n3Cc3ccc(F)cc3)CCOC2)cc1 (stereo not drawn) [Example 58, 2-(tert-butoxy)-2-(5-(4-fluorobenzyl)-7-methyl-6-oxo-9-(p-tolyl)-1,3,4,5,6,7-hexahydropyrano[3′,4′:4,5]pyrrolo[2,3-c]pyridin-8-yl)acetic acid] | 750 | 750 |
| Cc1ccc(-c2c(C(OC(C)(C)C)C(=O)O)n(C)c(=O)c3c2c2c(n3Cc3ccc(F)cc3)CCCC2)cc1 (stereo not drawn) [Example 59, 2-(tert-butoxy)-2-(9-(4-fluorobenzyl)-2-methyl-1-oxo-4-(p-tolyl)-2,5,6,7,8,9-hexahydro-1H-pyrido[3,4-b]indol-3-yl)acetic acid] | 280 | 280 |
| Cc1ccc(-c2c(C(OC(C)(C)C)C(=O)O)n(C)c(=O)c3c2c2c(n3C)CCCC2)cc1 (stereo not drawn) [Example 60, 2-(tert-butoxy)-2-(2,9-dimethyl-1-oxo-4-(p-tolyl)-2,5,6,7,8,9-hexahydro-1H-pyrido[3,4-b]indol-3-yl)acetic acid] | 50 | 50 |
| COc1ccc(Cn2c3c(c4c(-c5ccc(C)cc5)c(C(OC(C)(C)C)C(=O)O)n(C)c(=O)c42)CCCC3)cc1 (stereo not drawn) [Example 61, 2-(tert-butoxy)-2-(9-(4-methoxybenzyl)-2-methyl-1-oxo-4-(p-tolyl)-2,5,6,7,8,9-hexahydro-1H-pyrido[3,4-b]indol-3-yl)acetic acid] | 100 | 100 |
| COc1ccc(Cn2c3c(c4c(-c5ccc6c(c5C)CCCO6)c(C(OC(C)(C)C)C(=O)O)n(C)c(=O)c42)CCCC3)cc1 (stereo not drawn) [Example 62, 2-(tert-butoxy)-2-(9-(4-methoxybenzyl)-2-methyl-4-(5-methylchroman-6-yl)-1-oxo-2,5,6,7,8,9-hexahydro-1H-pyrido[3,4-b]indol-3-yl)acetic acid] | 50 | 50 |
| COc1ccc(Cn2ncc3c(-c4ccc(C)c(C)c4)c(C(OC(C)(C)C)C(=O)O)n(C)c(=O)c32)cc1 (stereo not drawn) [Example 63, 2-(tert-Butoxy)-2-(4-(3,4-dimethylphenyl)-1-(4-methoxybenzyl)-6-methyl-7-oxo-6,7-dihydro-1H-pyrazolo[3,4-c]pyridin-5-yl)acetic acid] | 1200 | 1200 |
| Cc1ccc(-c2c(C(OC(C)(C)C)C(=O)O)n(C)c(=O)c3c2cnn3Cc2ccc(F)cc2)cc1 (stereo not drawn) [Example 64, 2-(tert-Butoxy)-2-(1-(4-fluorobenzyl)-6-methyl-7-oxo-4-(p-tolyl)-6,7-dihydro-1H-pyrazolo[3,4-c]pyridin-5-yl)acetic acid] | 180 | 180 |
| COc1ccc(Cn2ncc3c(-c4ccc5c(c4C)CCCO5)c(C(OC(C)(C)C)C(=O)O)n(C)c(=O)c32)cc1 (stereo not drawn) [Example 65] | 410 | 410 |
| Cc1c(-c2c(C(OC(C)(C)C)C(=O)O)n(C)c(=O)c3c2cnn3Cc2ccccn2)ccc2c1CCCO2 (stereo not drawn) [Example 66, 2-(tert-Butoxy)-2-(6-methyl-4-(5-methylchroman-6-yl)-7-oxo-1-(pyridin-2-ylmethyl)-6,7-dihydro-1H-pyrazolo[3,4-c]pyridin-5-yl)acetic acid] | 1360 | 1360 |
| Cc1c(-c2c(C(OC(C)(C)C)C(=O)O)n(C)c(=O)c3c2cnn3Cc2ccc(F)cc2)ccc2c1CCCO2 (stereo not drawn) [Example 67, 2-(tert-butoxy)-2-(1-(4-fluorobenzyl)-6-methyl-4-(5-methylchroman-6-yl)-7-oxo-6,7-dihydro-1H-pyrazolo[3,4-c]pyridin-5-yl)acetic acid] | 80 | 80 |
